Results reported in PubChem BioAssay AID1919013 (Molecular Pharmacology Branch, DTP, NCI, 2023).

System: LG0703-F498-PDC complex spheroid growth
Assay: Anticancer human tumor LG0703-F498-PDC patient-derived lung adenocarcinoma cell line growth inhibition [AhR]
Conditions: for IC50: curve of first compound; for viability, T/C: stronger effect = lower value
Procedure, shortened: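 Complex tumor spheroids co-cultured with HUVEC and human MSC stroma; AhR antagonists tested in combination with standard-of-care and investigational agents. Top concentration at or near clinical Cmax (else 10 microM), half-log dilutions; growth expressed as percent test/control.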

[1] = second compound 0.1 µM, first compound 0.00316 µM
[2] = second compound 0.1 µM, first compound 0.01 µM
[3] = second compound 0.1 µM, first compound 0.0316 µM
[4] = second compound 0.1 µM, first compound 0.1 µM
[5] = second compound 0.316 µM, first compound 0.00316 µM
[6] = second compound 0.316 µM, first compound 0.01 µM
[7] = second compound 0.316 µM, first compound 0.0316 µM
[8] = second compound 0.316 µM, first compound 0.1 µM
[9] = second compound 1 µM, first compound 0.00316 µM
[10] = second compound 1 µM, first compound 0.01 µM
[11] = second compound 1 µM, first compound 0.0316 µM
[12] = second compound 1 µM, first compound 0.1 µM
[13] = second compound 3.16 µM, first compound 0.00316 µM
[14] = second compound 3.16 µM, first compound 0.01 µM
[15] = second compound 3.16 µM, first compound 0.0316 µM
[16] = second compound 3.16 µM, first compound 0.1 µM
[17] = second compound 10 µM, first compound 0.00316 µM
[18] = second compound 10 µM, first compound 0.01 µM
[19] = second compound 10 µM, first compound 0.0316 µM
[20] = second compound 10 µM, first compound 0.1 µM
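Also: luminescence taken as a proxy for viable cell amount.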
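For viability, T/C in this document: percent of DMSO vehicle control where 100% means growth equal to vehicle.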

| Structure (SMILES) | IC50 (second compound 0.1 µM) [nM] | IC50 (second compound 0.316 µM) [nM] | IC50 (second compound 1 µM) [nM] | IC50 (second compound 3.16 µM) [nM] | IC50 (second compound 10 µM) [nM] | viability, T/C [1] [%] | viability, T/C [2] [%] | viability, T/C [3] [%] | viability, T/C [4] [%] | viability, T/C [5] [%] | viability, T/C [6] [%] | viability, T/C [7] [%] | viability, T/C [8] [%] | viability, T/C [9] [%] | viability, T/C [10] [%] | viability, T/C [11] [%] | viability, T/C [12] [%] | viability, T/C [13] [%] | viability, T/C [14] [%] | viability, T/C [15] [%] | also measured |
| --- | --- | --- | --- | --- | --- | --- | --- | --- | --- | --- | --- | --- | --- | --- | --- | --- | --- | --- | --- | --- | --- |
| CC1COCCN1c1cc(-c2ccnn2C)c2ccnc(-c3ccn[nH]3)c2n1 (stereo not given) + CC(CO)NC(=O)c1cc(-c2ccc(Cl)cc2)nn(-c2cnn(C)c2)c1=O | 666 | 465 | 602 | 416 | 243 | 107 | 104 | 93.4 | 70.6 | 93.2 | 110 | 96.6 | 72.5 | 108 | 102 | 90.7 | 82.4 | 87.5 | 90.5 | 78.2 | viability, T/C (second compound 0.1 µM, first compound 0.316 µM): 66.2%; viability, T/C (second compound 0.1 µM, first compound 1 µM): 42.5%; viability, T/C (second compound 0.316 µM, first compound 0.316 µM): 55.8%; viability, T/C (second compound 0.316 µM, first compound 1 µM): 43.4%; viability, T/C (second compound 1 µM, first compound 0.316 µM): 58.1%; viability, T/C (second compound 1 µM, first compound 1 µM): 42.5%; viability, T/C [16]: 67.2%; viability, T/C (second compound 3.16 µM, first compound 0.316 µM): 55.1%; viability, T/C (second compound 3.16 µM, first compound 1 µM): 37.9%; viability, T/C [17]: 101%; viability, T/C [18]: 90.1%; viability, T/C [19]: 82.7%; viability, T/C [20]: 60.8%; viability, T/C (second compound 10 µM, first compound 0.316 µM): 47.1%; viability, T/C (second compound 10 µM, first compound 1 µM): 32.6% |
| CC[C@@]1(O)C(=O)OCc2c1cc1n(c2=O)Cc2cc3c(CN(C)C)c(O)ccc3nc2-1 + Cc1cncc(-c2nc(NCCc3c[nH]c4ccccc34)c3ncn(C(C)C)c3n2)c1 | > 100 | > 100 | > 100 | 29.8 | < 0.316 | 100 | 89.2 | 78.6 | 63.7 | 102 | 87.5 | 63.9 | 55.4 | 101 | 90.6 | 73 | 50.2 | 56.6 | 57.6 | 48 | viability, T/C (second compound 0.1 µM, first compound 0.000316 µM): 96.8%; viability, T/C (second compound 0.1 µM, first compound 0.001 µM): 99.7%; viability, T/C (second compound 0.316 µM, first compound 0.000316 µM): 93%; viability, T/C (second compound 0.316 µM, first compound 0.001 µM): 105%; viability, T/C (second compound 1 µM, first compound 0.000316 µM): 97.5%; viability, T/C (second compound 1 µM, first compound 0.001 µM): 101%; viability, T/C (second compound 3.16 µM, first compound 0.000316 µM): 56.9%; viability, T/C (second compound 3.16 µM, first compound 0.001 µM): 67.9%; viability, T/C [16]: 38.3%; viability, T/C (second compound 10 µM, first compound 0.000316 µM): 1.34%; viability, T/C (second compound 10 µM, first compound 0.001 µM): 2.04%; viability, T/C [17]: 1.13%; viability, T/C [18]: 1.73%; viability, T/C [19]: 1.21%; viability, T/C [20]: 2.28% |
